From patent publication US11529391B2, “Reversing deficient hedgehog signaling restores deficient skeletal regeneration” (The Board of Trustees of the Leland Stanford Junior …, priority 2017, dated 2022)
Entries after “also recorded” stand apart in the source; their conditions may differ.

Tests used:
[1] = tested on: Ihh expression; assay: qRT-PCR of Ihh expression in mSSC and BCSP cultures in supplemented media; type: cell-based, mouse
Protocol: To determine if high levels of glucose or TNFα could directly repress Hh expression in skeletal niches, we cultured FACS-sorted mSSCs and BCSPs from uninjured P3 WT femora in glucose-supplemented, TNFα-supplemented, or control media for 48 hours. […] Furthermore, neutralization of TNFα with anti-TNFα antibodies restored Ihh expression levels in mSSCs cultured in dbLR serum (FIG. 15).
(§1) Cell culture. Cells were maintained in vitro in Minimum Essential Media (MEM) with 10% FBS and 1% penicillin-streptomycin (Penstrep) under 2% O2/7.5% CO2. Each plate was coated with 0.1% gelatin. Cultured cells were lifted using collagenase II buffer (Sigma-Aldrich). For mSSC colony forming assays, cells were cultured for 2 weeks and colonies were counted using phase microscopy. The cells were lifted for staining and analysis by FACS. Osteogenic differentiation medium consisted of Dulbecco's Modified Eagle Medium with 10% FBS, 100 μg/ml ascorbic acid, and 10 mM-glycerophosphate. mSSCs isolated from P3, WT, and db mice were maintained in either regular media (MEM-alpha medium with 10% FBS, 1% Penstrep) or regular media supplemented with Ihh (R&D, […]), Shh (R&D, 500 pg/mL), or PBS under 2% O2/7.5% CO2 conditions. After 7 days, cells were lifted for staining and analysis by FACS or for RNA extraction and qRT-PCR.
Quantitative reverse transcription polymerase chain reaction (qRT-PCR). RNA was isolated from cells using the RNeasy Mini kit (Qiagen) as per manufacturer's instructions. Reverse transcription was performed and gene expression was examined by qRT-PCR using the Applied biosystems Prism 7900HT sequence detection system (Applied Biosystems) and SYBR Green PCR Master Mix (Applied Biosystems). All values were normalized using glyceraldehyde 3-phosphate dehydrogenase for mouse samples and using beta-actin for human samples. Specific primer sequences for genes of interest were obtained from PrimerBank.

[2] = tested on: mSSCs and BCSPs; assay: FACS count of mSSCs and BCSPs in calluses after Hh antagonism; type: in vivo, mouse; details: post-fracture day 7 calluses of treated versus untreated WT mice
Protocol: (§2) To verify that Hh antagonism impairs fracture repair in vivo, we administered XL139 to WT mice via oral gavage immediately after injury and assessed healing femur strength at post-fracture week 4 using MST.
Isolation of skeletal progenitor cells. Uninjured femora and fractured femora were harvested at post-fracture days 3, 7, 10, 14, 21, and 28. Fracture calluses were dissected using microscopy. Tissues were crushed with mortar and pestle in collagenase buffer (2.2 mg/ml collagenase, DNase, 1000×1 M CaCl2, 100×p188, 50×1 M Hepes, m199 solvent), and heated to 37° C. for 10 min to activate collagenase. Each sample underwent 3 serial digestions at 37° C. for 25 minutes under gentle agitation. Dissociated cells were filtered through a 40 μm nylon mesh and washed in FACS buffer (2% fetal bovine serum in PBS). Each sample was pelleted at 200 g at 4° C. and resuspended in FACS buffer. Then, each sample was layered onto a histopaque gradient prior to centrifugation at 1400 rpm for 15 minutes at room temperature with zero acceleration. The cloudy interphase was aspirated, washed with FACS buffer, and centrifuged. The cells were stained with fluorochrome-conjugated antibodies against CD45, Ter119, Tie2, αv-integrin, Ly 51, CD105, Thy 1.1, and Thy 1.2 for purification by flow cytometry. Cells were sorted twice (once on “yield,” then on “purity”) to increase purity (BD FACS Aria).

[3] = tested on: WT mice; assay: Femoral fracture healing after Hh antagonism, Mechanical Strength Testing (MST); type: in vivo, mouse; details: oral gavage immediately after injury, post-fracture week 4, versus untreated
Protocol: as §2
Femoral fractures. Ten-week old mice were anesthetized with aerosolized isoflurane. Analgesia was administered and the surgical site was prepared prior to skin incision. A medial parapatellar incision was created. The patella was dislocated laterally to expose the femoral condyles. The medullary cavity was reamed using a 25 to 23 G×⅝-inch regular bevel needle (BD) prior to insertion of an intramedullary pin of equal diameter into the medullary cavity. A transverse, middiaphyseal fracture was made using scissors. The pin remained in situ to provide relative stability during healing. The patella was relocated, muscles were reapproximated, and the skin was closed using a 6/0 nylon suture. Animals were radiographed to verify fracture alignment and assess fracture fixation. Animals with fracture displacement were excluded. Pin diameter was adjusted according to femoral cavity lumen diameter to minimize migration.
Mechanical Strength Testing (MST). MST was performed using a delaminator run by R.H. Dauskardt laboratory at Stanford University. […] The maximum load (N) to fracture was recorded (FIG. 9).

[4] = tested on: post-fracture day 7 WT mSSCs; assay: In vitro osteogenesis of mSSCs under Hh antagonism, alizarin red staining; type: cell-based, mouse; details: post-fracture day 7 WT mSSCs treated in vitro
Text: To investigate if Hh signaling is essential for mSSC-dependent osteogenesis, we antagonized Hh signaling in post-fracture day 7 WT mSSCs in vitro using XL139, a small molecule antagonist of Smo.
as §1

Compound	dose dependence of repression of Ihh expression in BCSPs ([1]; BCSP-derived cultures from uninjured P3 mice)	Ihh expression (qRT-PCR) in BCSP cultures ([1]; BCSPs from uninjured P3 WT femora, supplemented media 48 hours versus control media)	Ihh expression (qRT-PCR) in mSSC cultures ([1]; mSSCs from uninjured P3 WT femora, supplemented media 48 hours versus control media)	number of mSSCs and BCSPs [2]	healing femur strength (MST) [3]	osteogenic potential of mSSCs (alizarin red staining) [4]
TNFα	dose dependent; also recorded: dose-dependent	significantly reduced; also recorded: reduces	significantly reduced; also recorded: significantly diminishes			
CNCc1ccc(C)c(NC(=O)c2ccc(Nc3nc(-c4ccccc4)c4ccccc4n3)cc2)c1 [XL139]				highly significant reduction	reduced significantly	dose-dependent reduction; also recorded: reduces
